Laboratory results as given in patent publication US20250026741A1, “INHIBITORS OF THE ONCOGENIC SHP2 PHOSPHATASE AND USES THEREOF” (Sanford Burnham Prebys Medical Discovery Institute, priority 2021, published 2025).

Experiments:
SHP2cat = SHP2cat (Homo sapiens (Human), UniProt Q06124); experiment: Mass spectrometry test for inhibitor:protein adducts; conditions: SHP2cat 5 μM, inhibitor 100 μM, 1, 5, 20, 60 min, trypsin proteolysis, MS
Method: Additionally, we used mass spectrometry to test whether inhibitor: protein adducts are formed. Specifically, we incubated SHP2cat (5 μM) with #02 (100 μM) in assay buffer for various times (1, 5, 20, and 60 min) before trypsin proteolysis and subsequent mass spectrometry analysis.

SHP2-E76K = SHP2-E76K (Homo sapiens (Human), UniProt Q06124, E76K); experiment: Michaelis-Menten kinetics and mode of inhibition; assay type: biochemical
Sequence of SHP2-E76K (Q06124 whole entry E76K): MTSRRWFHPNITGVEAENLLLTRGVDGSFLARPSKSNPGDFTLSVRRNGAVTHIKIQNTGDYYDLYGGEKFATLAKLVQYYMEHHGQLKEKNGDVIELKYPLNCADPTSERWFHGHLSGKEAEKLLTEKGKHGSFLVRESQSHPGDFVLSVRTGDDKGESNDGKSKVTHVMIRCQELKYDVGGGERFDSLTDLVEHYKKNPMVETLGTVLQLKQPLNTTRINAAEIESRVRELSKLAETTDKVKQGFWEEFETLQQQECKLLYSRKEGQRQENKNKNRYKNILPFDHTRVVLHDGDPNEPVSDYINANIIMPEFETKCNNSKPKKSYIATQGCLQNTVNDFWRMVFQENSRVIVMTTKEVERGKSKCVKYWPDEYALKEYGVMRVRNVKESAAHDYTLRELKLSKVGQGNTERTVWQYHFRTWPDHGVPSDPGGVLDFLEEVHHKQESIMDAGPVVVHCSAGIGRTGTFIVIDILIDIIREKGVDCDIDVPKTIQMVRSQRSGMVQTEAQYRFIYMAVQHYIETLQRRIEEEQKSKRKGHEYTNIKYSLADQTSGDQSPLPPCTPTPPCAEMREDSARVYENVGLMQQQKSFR
Method: Using nonlinear regression, initial rates at various inhibitor and substrate concentrations were fitted to the Michaelis-Menten equations for competitive, noncompetitive, uncompetitive, and mixed inhibition. Fitting models were then compared using Akaike's Information Criterion (AIC), and inhibition mode probabilities were calculated from the differences between the corresponding second-order corrected AIC scores.
#02 was tested with SHP2-E76K using a similar assay format as described above. #02 or vehicle (DMSO) were spotted in triplicate into a black Greiner FLUOTRAC™ 200 384-well microplate (#781076, Greiner) using an Echo 555 Liquid Handler (Labcyte, Inc., San Jose, CA). SHP2-E76K working solution was prepared and dispensed as described above and incubated with inhibitor for 20 min at RT. DiFMUP working solutions at 5×final concentration were prepared in 50 mM Bis-Tris pH 6.0, 50 mMNaCl, and 0.01% Tween 20. […] Fluorescence intensity was measured in kinetic mode as described above. The initial rates were determined from the linear progression curves of each SHP2-E76K reaction. […] For a comparison of the fitting results, the second-order corrected Akaike's Information Criterion (AICc) was calculated using equation 1, where N is the number of data points, SS the absolute sum of squares, and K the number of parameters fit by nonlinear regression plus 1.

[1] = test system: p-ERK1/2 in MOLM-13 AML cells; experiment: Phospho-ERK1/2 immunoblot analysis, MOLM-13; assay type: cell-based; conditions: #02 3, 10, 30 μM, RMC-4550 1 μM
Method: Because SHP2 activity is critical for ERK activation, we used phospho-ERK1/2 (p-ERK1/2) as a more direct readout of SHP2 inhibitor efficacy. […] However, a greater effect of #02 was observed after 24 h treatment. […] This p-ERK rebound in MOLM-13 cells treated with RMC-4550 is reminiscent of previously reported data from human hepatoma Hep3B cells treated with SHP099.
Total protein extracts were prepared in modified RIPA lysis buffer (25 mM Tris-HCl, pH 7.4, 10% glycerol, 0.2% Triton™ X-100, 150 mM NaCl, 2 mM Na3VO4, 1 mM EDTA) containing a protease inhibitor cocktail (Roche Applied Science, Indianapolis, IN). Equal amounts of protein were separated on 4-12% (p-ERK1/2 blots) or 4-20% (SHP2 blots) Bis-Tris gels by SDS-PAGE and transferred to nitrocellulose (p-ERK1/2 blots) or 0.2 μm PVDF (SHP2 blots) membranes. Membranes were blocked in 5% dry milk (Bio-Rad, Hercules, CA) in TBS-Tween 20 (0.1% vol/vol; TBS-T) for 1 h at room temperature. Protein-bound membranes were incubated with indicated primary antibody overnight at 4° C. After washing three times with TBS-T, membranes were incubated for 1 h with horseradish peroxidase-conjugated secondary antibody, then visualized by an ECL Prime detection system (GE Healthcare). Immunoblotting experiments were carried out at least three times and representative images are shown. Densitometric quantitation of immunoblots was performed using Image Studio Lite Software. Changes of phosphorylated ERK1/2 to total ERK1/2 rations are expressed as percentage of the vehicle-treated controls. The following antibodies were used: Phospho-Erk1/2 Ab, Cell Signaling, #9101S; total Erk1/2 Ab, Cell Signaling, #9102S; SHP2 Ab, Bethyl, A301-544A, lot #1; GAPDH (14C10) mAb, Cell Signaling, #2118S, lot #14.

Sequence of SHP2cat (Q06124 248-527): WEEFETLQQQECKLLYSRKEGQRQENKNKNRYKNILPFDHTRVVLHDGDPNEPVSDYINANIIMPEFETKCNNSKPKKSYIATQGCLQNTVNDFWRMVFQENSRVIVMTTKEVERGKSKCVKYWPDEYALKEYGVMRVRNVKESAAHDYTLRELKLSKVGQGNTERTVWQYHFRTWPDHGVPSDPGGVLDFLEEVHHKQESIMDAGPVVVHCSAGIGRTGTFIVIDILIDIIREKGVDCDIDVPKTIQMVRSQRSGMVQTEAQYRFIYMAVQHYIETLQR

O=C(Nc1ccccc1)c1cc(-c2ccc(/C=C3\Sc4ccccc4C3=O)o2)ccc1O [#02, (Z)-2-hydroxy-5-(5-((3-oxobenzo[b]thiophen-2(3H)-ylidene)methyl)furan-2-yl)-N-phenylbenzamide]
inhibitor:protein adduct formation (SHP2cat): no adduct formation with the inhibitor was found
mode of inhibition (SHP2-E76K; AIC model comparison): noncompetitive or mixed inhibition mechanism
Ki (SHP2-E76K; DiFMUP substrate, read-out: inhibition constant (Ki) for noncompetitive inhibition): 1800 nM
ERK1/2 activation (p-ERK1/2 levels) ([1]; MOLM-13, 3 h treatment): dose-dependently inhibits ERK1/2 activation
ERK1/2 activation (p-ERK1/2 levels) ([1]; MOLM-13, 24 h treatment): dose-dependently inhibits ERK1/2 activation
